Experimental data taken from patent US8119563B2, “N-substituted azacycles” (FMC Corporation, priority 2003, dated 2012).

System: tobacco budworm (Heliothis virescens [Fabricius])
Experiment: surface-treated diet test, insecticidal activity against tobacco budworm
Type: in vivo
Set-up: mortality: concentration or dose not given beside the values
Conditions: 0.25 millimoles of candidate insecticide on the surface of the diet, second instar larvae, five-day exposure; for Percent Mortality / mortality: compared to total number of insects infested; for Percent Growth Inhibition / pest or weed control at 0.25 mmol/well: inhibition of insect weight relative to untreated controls; for mortality / pest or weed control at 0.25 mmol/well: Heliothis virescens, 120 h; for mortality: read-out: Percent Mortality; for pest or weed control at 0.25 mmol/well: read-out: Percent Growth Inhibition
Outline: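 Second-instar larvae (~5 mg) were held five days at 25° C and 60% RH on artificial diet whose surface carried dried compound (0.25 millimolar standard rate; DMSO serial dilutions for rate series, six replicates each). Readouts: mortality and weight inhibition relative to DMSO-treated controls.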

| SMILES | Percent Mortality [%] | Percent Growth Inhibition [%] | mortality [%] | pest or weed control at 0.25 mmol/well [%] |
| --- | --- | --- | --- | --- |
| OC1(C(c2ccc(C(F)(F)F)cc2)c2ccc(C(F)(F)F)cc2)CCN(Cc2ccc(OCC3CC3)cc2)CC1 [Compound 299] | 100 | 100 | – | – |
| CC(=O)OCC1(C(c2ccc(C(F)(F)F)cc2)c2ccc(C(F)(F)F)cc2)CC[N+]([O-])(Cc2ccc(Oc3ncccn3)cc2)CC1 (stereo not drawn) [Compound 468] | 17 | 100 | – | – |
| O=C(Nc1ccc(Cl)cc1)Oc1ccc(CN2CCC(O)(C(c3ccc(OC(F)(F)F)cc3)c3ccc(OC(F)(F)F)cc3)CC2)cc1 [Compound 324] | 33 | 100 | – | – |
| OC1(C(c2ccc(OC(F)(F)F)cc2)c2ccc(C(F)(F)F)cc2)CCN(Cc2ccc(Oc3ccccn3)cc2)CC1 (stereo not drawn) [Compound 265] | 100 | 100 | – | – |
| CC(C)(C)c1ccc(C(c2ccc(OC(F)(F)F)cc2)C2(O)CC[N+]([O-])(Cc3ccc(Oc4ccccn4)cc3)CC2)cc1 (stereo not drawn) [Compound 335] | 100 | 100 | – | – |
| NC(=O)CON=Cc1ccc(C[N+]2([O-])CCC(O)(C(c3ccc(OC(F)(F)F)cc3)c3ccc(OC(F)(F)F)cc3)CC2)cc1 (stereo not drawn) [Compound 410] | 100 | 100 | – | – |
| OC1(C(c2ccc(C(F)(F)F)cc2)c2ccc(C(F)(F)F)cc2)CCN(Cc2ccc(Oc3ccc(Cl)nn3)cc2)CC1 [Compound 307] | 100 | 100 | – | – |
| CCON=Cc1ccc(CN2CCC(O)(C(O)(c3ccc(OC(F)(F)F)cc3)c3ccc(OC(F)(F)F)cc3)CC2)cc1 [Compound 417] | 100 | 100 | – | – |
| OC1(C(c2ccc(OC(F)(F)F)cc2)c2ccc(OC(F)(F)F)cc2)CCN(Cc2ccc(Oc3cccc(Cl)c3)cc2)CC1 [Compound 286] | 100 | 100 | – | – |
| COCCOCCON=Cc1ccc(CN2CCC(O)(C(c3ccc(OC(F)(F)F)cc3)c3ccc(OC(F)(F)F)cc3)CC2)cc1 [Compound 258] | 100 | 100 | – | – |
| [O-][N+]1(Cc2ccc(Oc3ncccn3)cc2)CCC(O)(C(c2ccc(OC(F)(F)F)cc2)c2ccc(OC(F)(F)F)cc2)CC1 (stereo not drawn) [Compound 112, 4-{bis[4-(trifluoromethoxy)phenyl]methyl}-4-hydroxy-1-[(4-pyrimidin-2-yloxyphenyl)methyl]piperidin-1-oxide] | – | – | 100 | 100 |
| CCOC(=O)C1(C(Cl)(c2ccc(C(F)(F)F)cc2)c2ccc(C(F)(F)F)cc2)CCN(Cc2ccc(Oc3ccccn3)cc2)CC1 [Compound 195, ethyl 4-{bis[4-(trifluoromethyl)phenyl]chloromethyl}-1-[(4-(2-pyridyloxy)phenyl)methyl]piperidine-4-carboxylate] | – | – | 100 | 100 |
| COc1cc(OC)cc(C(c2ccc(C(F)(F)F)cc2)C2(O)CCN(Cc3ccc(Oc4ncccn4)cc3)CC2)c1 (stereo not drawn) [Compound 5] | 0 | 97 | – | – |
| OC1(C(c2ccc(OC(F)(F)F)cc2)c2ccc(OC(F)(F)F)cc2)CCN(Cc2ccc(Oc3ccccn3)cc2)CC1 [Compound 21, 4-{bis[4-(trifluoromethoxy)phenyl]methyl}-1-[(4-(2-pyridyloxy)phenyl)methyl]piperidin-4-ol] | – | – | 100 | 100 |
| [O-][N+]1(CCOc2ccc(Cl)cc2)CCC(O)(C(c2ccc(OC(F)(F)F)cc2)c2ccc(OC(F)(F)F)cc2)CC1 (stereo not drawn) [Compound 478] | 100 | 100 | – | – |
| CC1(C)[C@@H]2CCC1(CS(=O)(=O)[O-])C(=O)C2.CCON=Cc1ccc(C[N+]2(O)CCC(O)(C(c3ccc(OC(F)(F)F)cc3)c3ccc(OC(F)(F)F)cc3)CC2)cc1 (stereo not drawn) [Compound 490] | 100 | 100 | – | – |
| CC(C)=CCCC(C)=CCON=Cc1ccc(C(c2ccc(OC(F)(F)F)cc2)C2(O)CCN(Cc3ccc(Oc4ccccn4)cc3)CC2)cc1 (racemic) [Compound 284] | 17 | 100 | – | – |
| [O-][N+]1(Cc2ccc(C3OCCO3)cc2)CCC(O)(C(c2ccc(C(F)(F)F)cc2)c2ccc(C(F)(F)F)cc2)CC1 (stereo not drawn) [Compound 342] | 100 | 100 | – | – |
| CCOCON=Cc1ccc(CN2CCC(O)(C(c3ccc(OC(F)(F)F)cc3)c3ccc(OC(F)(F)F)cc3)CC2)cc1 [Compound 259] | 100 | 100 | – | – |
| [O-][N+]1(Cc2ccc(C=NOCCF)cc2)CCC(O)(C(c2ccc(OC(F)(F)F)cc2)c2ccc(OC(F)(F)F)cc2)CC1 (stereo not drawn) [Compound 389] | 100 | 100 | – | – |
| [O-][N+]1(CCCCOc2ccc(Cl)cc2)CCC(O)(C(c2ccc(OC(F)(F)F)cc2)c2ccc(OC(F)(F)F)cc2)CC1 (stereo not drawn) [Compound 480] | 100 | 100 | – | – |

| SMILES | Percent Mortality [%] | Percent Growth Inhibition [%] | mortality [%] | pest or weed control at 0.25 mmol/well [%] |
| --- | --- | --- | --- | --- |
| OC1(C(c2ccc(Cl)cc2)c2ccc(Cl)cc2)CCN(Cc2ccc(Oc3ccccn3)cc2)CC1 [Compound 267] | 100 | 100 | – | – |
| OC1(C(c2ccc(OC(F)(F)F)cc2)c2ccc(OC(F)(F)F)cc2)CCN(Cc2ccc(Oc3ncccc3Cl)cc2)CC1 [Compound 322] | 100 | 100 | – | – |
| CC(=O)OC(c1ccc(Cl)cc1)c1ccc(CN2CCC(O)(C(c3ccc(OC(F)(F)F)cc3)c3ccc(OC(F)(F)F)cc3)CC2)cc1 (racemic) [Compound 289] | 100 | 100 | – | – |
| CCON=Cc1ccc(C[N+]2([O-])CCC(O)(C(c3ccc(OC(F)(F)F)cc3)c3ccc(OC(F)(F)F)cc3)CC2)cc1 (stereo not drawn) [Compound 118] | 100 | 100 | – | – |
| CCCOC(=O)Nc1ccc(C[N+]2([O-])CCC(O)(C(c3ccc(C(F)(F)F)cc3)c3ccc(C(F)(F)F)cc3)CC2)cc1 (stereo not drawn) [Compound 390] | 100 | 100 | – | – |
| CCOC(=O)CNC(=O)Oc1ccc(CN2CCC(O)(C(c3ccc(OC(F)(F)F)cc3)c3ccc(OC(F)(F)F)cc3)CC2)cc1 [Compound 317] | 100 | 100 | – | – |
| [O-][N+]1(Cc2ccc(OCC=C(Cl)Cl)cc2)CCC(O)(C(c2ccc(OC(F)(F)F)cc2)c2ccc(OC(F)(F)F)cc2)CC1 (stereo not drawn) [Compound 371] | 100 | 100 | – | – |
| CCCOC(=O)Nc1ccc(CN2CCC(O)(C(c3ccc(OC(F)(F)F)cc3)c3ccc(OC(F)(F)F)cc3)CC2)cc1 [Compound 310] | 100 | 100 | – | – |
| CCn1nnc(-c2ccc(CN3CCC(O)(C(c4ccc(Cl)c(Cl)c4)c4ccc(Cl)c(Cl)c4)CC3)cc2)n1 [Compound 26] | 100 | 100 | – | – |
| CCOC(C)C(=O)[O-].CCON=Cc1ccc(C[N+]2(O)CCC(O)(C(c3ccc(OC(F)(F)F)cc3)c3ccc(OC(F)(F)F)cc3)CC2)cc1 (stereo not drawn) [Compound 484] | 100 | 100 | – | – |
| CCCCNC(=O)Oc1ccc(CN2CCC(O)(C(c3ccc(OC(F)(F)F)cc3)c3ccc(OC(F)(F)F)cc3)CC2)cc1 [Compound 326] | 100 | 100 | – | – |
| N#Cc1ccc(Oc2ccc(CN3CCC(O)(C(c4ccc(OC(F)(F)F)cc4)c4ccc(OC(F)(F)F)cc4)CC3)cc2)nc1 [Compound 283] | 100 | 100 | – | – |
| CCn1nnc(-c2ccc(CN3CCC(O)(C(c4ccc(C(F)(F)F)cc4)c4ccc(C(F)(F)F)cc4)CC3)cc2)n1 [Compound 27] | 100 | 100 | – | – |
| CC(C)OC(=O)Nc1ccc(C[N+]2([O-])CCC(O)(C(O)(c3ccc(OC(F)(F)F)cc3)c3ccc(OC(F)(F)F)cc3)CC2)cc1 (stereo not drawn) [Compound 423] | 100 | 100 | – | – |
| OC1(C(c2ccc(OC(F)(F)F)cc2)c2ccc(OC(F)(F)F)cc2)CCN(Cc2ccc(OCC=C(Cl)Cl)cc2)CC1 [Compound 293] | 100 | 100 | – | – |
| OC1(C(c2ccc(OC(F)(F)F)cc2)c2cc(Cl)ccc2Cl)CCN(Cc2ccc(Oc3ccccn3)cc2)CC1 (stereo not drawn) [Compound 443] | 100 | 100 | – | – |
| CC(=O)NCC1(C(c2ccc(C(F)(F)F)cc2)c2ccc(C(F)(F)F)cc2)CCN(Cc2ccc(Oc3ncccn3)cc2)CC1 [Compound 451] | 0 | 100 | – | – |
| FC(F)(F)Oc1ccc(C(c2ccc(OC(F)(F)F)cc2)C2(F)CCN(Cc3ccc(Oc4ncccn4)cc3)CC2)cc1 [Compound 192, 4-{bis[4-(trifluoromethoxy)phenyl]methyl}-4-fluoro-1-[(4-pyrimidin-2-yloxyphenyl)methyl]piperidine] | – | – | 100 | 100 |
| CC1(C)[C@H]2CCC1(CS(=O)(=O)[O-])C(=O)C2.OC1(C(c2ccc(OC(F)(F)F)cc2)c2ccc(OC(F)(F)F)cc2)CC[N+](O)(Cc2ccc(Oc3ccccn3)cc2)CC1 (stereo not drawn) [Compound 498] | 100 | 100 | – | – |
| OC1(C(c2cc(F)cc(F)c2)c2cc(F)cc(F)c2)CCN(Cc2ccc(Oc3ncccn3)cc2)CC1 [Compound 10] | 0 | 50 | – | – |
| Cl.OC1(C(c2ccc(OC(F)(F)F)cc2)c2ccc(OC(F)(F)F)cc2)CCN(Cc2ccc(Oc3ccccn3)cc2)CC1 [Compound 522] | 100 | 100 | – | – |
